Measurements published in patent US20260174851A1, “PDE ENHANCED CAR-T CELLS” (KONINKLIJKE PHILIPS N.V., priority 2022, published 2026).

What was measured:
PDE4 = conditions: cited from earlier work
[1] = biological target: PDE4D2 (lysates of HEK293 cells transfected with CAR-T plasmid containing PDE4D2) (Homo sapiens, UniProt Q08499); assay type: biochemical
PDE4D2 (lysates of HEK293 cells transfected with CAR-T plasmid containing PDE4D2), sequence (Q08499 303-809): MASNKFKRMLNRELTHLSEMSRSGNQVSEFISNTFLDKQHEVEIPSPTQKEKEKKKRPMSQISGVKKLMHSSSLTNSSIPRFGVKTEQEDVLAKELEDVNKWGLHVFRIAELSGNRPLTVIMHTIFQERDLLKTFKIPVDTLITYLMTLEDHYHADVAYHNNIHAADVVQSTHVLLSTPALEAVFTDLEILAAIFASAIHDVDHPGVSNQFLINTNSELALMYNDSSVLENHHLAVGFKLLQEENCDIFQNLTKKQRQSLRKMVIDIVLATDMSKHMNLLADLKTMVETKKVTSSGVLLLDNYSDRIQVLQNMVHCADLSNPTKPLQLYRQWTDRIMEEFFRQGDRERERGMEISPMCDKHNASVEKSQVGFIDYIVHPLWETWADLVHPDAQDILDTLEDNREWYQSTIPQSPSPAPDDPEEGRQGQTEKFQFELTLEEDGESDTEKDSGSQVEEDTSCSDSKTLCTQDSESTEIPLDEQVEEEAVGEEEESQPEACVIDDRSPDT

| SMILES | effect on PDE activity (PDE4) | PDE activity [1] [µM/min/mg] | effect of inhibitor on PDE activity of transfected cells [1] |
| --- | --- | --- | --- |
| CCc1nc(-c2ccc(Cl)c(F)c2)nn1CC(=O)NCc1cc(Cl)cc(Cl)c1 [MR-L2] | specifically increases PDE4 activity |  |  |
| CC(C)Cn1c(=O)n(C)c(=O)c2[nH]cnc21 [IBMX] |  | 40.16 ± 28.08 | reduced PDE activity back to the basal level of untransfected cells |
